In patent US20240383874A1, “BENZENE RING DERIVATIVE, AND COMPOSITION AND PHARMACEUTICAL USE THEREOF” (Xizang Haisco Pharmaceutical Co., Ltd., priority 2020, published 2024):
Counter-ions that a name gives are not always drawn.

System: 22RV1 cells
Test: Experiment 2 on inhibiting 22RV1 cell proliferation (7 days, CellTiter-Glo)
Assay type: cell-based
Settings: Homo sapiens, 22Rv1, 168 h, 1% css-FBS phenol red-free medium, incubated with compound 7 days, read-out: IC50 values on proliferation inhibition of 22RV1 cells
In short: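 22RV1 cells plated at 2000/well in phenol red-free medium with 1% css-FBS and treated next day with compound for 7 days at 37 °C. Viability read by CellTiter-Glo luminescence relative to DMSO vehicle; IC50 from dose-response fit.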

Structure (SMILES) | IC50
Cn1c(=O)n(C2CCC(=O)NC2=O)c2ccc(C3CCN(C4CCN(CC5(F)CCN(c6nccc(COc7ccc(C(C)(C)c8cc(Cl)cc(C#N)c8)cc7)n6)CC5)CC4)CC3)cc21 (centres unmarked) [Compound 90 trifluoroacetate, 3-chloro-5-(2-(4-((2-(4-((4-(1-(2,6-dioxopiperidin-3-yl)-3-methyl-2-oxo-2,3-dihydro-1H-benzo[d]imidazol-5-yl)-[1,4′-bipiperidin]-1′-yl)methyl)-4-fluoropiperidin-1-yl)pyrimidin-4-yl)methoxy)phenyl)propan-2-yl)benzonitrile] | 627 nM
COc1c(Cl)cc(C(C)(C)c2ccc(OCc3ccnc(N4CCC(CN5CCC(c6ccc7c(c6)n(C)c(=O)n7C6CCC(=O)NC6=O)CC5)CC4)n3)cc2)cc1C#N (centres unmarked) [Compound 92 trifluoroacetate, 3-chloro-5-(2-(4-((2-(4-((4-(1-(2,6-dioxopiperidin-3-yl)-3-methyl-2-oxo-2,3-dihydro-1H-benzo[d]imidazol-5-yl)piperidin-1-yl)methyl)piperidin-1-yl)pyrimidin-4-yl)methoxy)phenyl)propan-2-yl)-2-methoxybenzonitrile] | 900 nM
Cn1c(=O)n(C2CCC(=O)NC2=O)c2cccc(CN3CCC(N4CCC5(CCN(c6nccc(COc7ccc(C(C)(C)c8cc(Cl)cc(C#N)c8)cc7)n6)CC5)CC4)CC3)c21 (centres unmarked) [Compound 100 trifluoroacetate, 3-chloro-5-(2-(4-((2-(9-(1-((1-(2,6-dioxopiperidin-3-yl)-3-methyl-2-oxo-2,3-dihydro-1H-benzo[d]imidazol-4-yl)methyl)piperidin-4-yl)-3,9-diazaspiro[5.5]undecan-3-yl)pyrimidin-4-yl)methoxy)phenyl)propan-2-yl)benzonitrile] | 577 nM
Cn1c(=O)n(C2CCC(=O)NC2=O)c2cccc(CN3CCC4(CC3)CC(N3CCC5(CCN(c6nccc(COc7ccc(C(C)(C)c8cc(Cl)cc(C#N)c8)cc7)n6)CC5)CC3)C4)c21 (centres unmarked) [Compound 101 trifluoroacetate, 3-chloro-5-(2-(4-((2-(9-(7-((1-(2,6-dioxopiperidin-3-yl)-3-methyl-2-oxo-2,3-dihydro-1H-benzo[d]imidazol-4-yl)methyl)-7-azaspiro[3.5]nonan-2-yl)-3,9-diazaspiro[5.5]undecan-3-yl)pyrimidin-4-yl)methoxy)phenyl)propan-2-yl)benzonitrile] | 699 nM
CCOc1c(Cl)cc(C(C)(C)c2ccc(OCc3ccnc(N4CCC(CN(C)C5CCN(c6ccc7c(c6)n(C)c(=O)n7C6CCC(=O)NC6=O)CC5)CC4)n3)cc2)cc1C#N (centres unmarked) [Compound 102 trifluoroacetate, 3-chloro-5-(2-(4-((2-(4-(((1-(1-(2,6-dioxopiperidin-3-yl)-3-methyl-2-oxo-2,3-dihydro-1H-benzo[d]imidazol-5-yl)piperidin-4-yl)(methyl)amino)methyl)piperidin-1-yl)pyrimidin-4-yl)methoxy)phenyl)propan-2-yl)-2-ethoxybenzonitrile] | 641 nM
Cn1c(=O)n(C2CCC(=O)NC2=O)c2ccc(N3CCC(C4CCN(CC5CN(c6nccc(COc7ccc(C(C)(C)c8cc(Cl)cc(C#N)c8)cc7)n6)C5)CC4)CC3)cc21 (centres unmarked) [Compound 103 trifluoroacetate, 3-chloro-5-(2-(4-((2-(3-((1′-(1-(2,6-dioxopiperidin-3-yl)-3-methyl-2-oxo-2,3-dihydro-1H-benzo[d]imidazol-5-yl)-[4,4′-bipiperidin]-1-yl)methyl)azetidin-1-yl)pyrimidin-4-yl)methoxy)phenyl)propan-2-yl)benzonitrile] | 823 nM
Cn1c(=O)n(C2CCC(=O)NC2=O)c2ccc(N3CCC(C4CCN(C5CCN(c6nccc(COc7ccc(C(C)(C)c8cc(Cl)cc(C#N)c8)cc7)n6)CC5)CC4)CC3)cc21 (centres unmarked) [Compound 104 trifluoroacetate, 3-chloro-5-(2-(4-((2-(1″-(1-(2,6-dioxopiperidin-3-yl)-3-methyl-2-oxo-2,3-dihydro-1H-benzo[d]imidazol-5-yl)-[4,1′:4′,4″-terpiperidin]-1-yl)pyrimidin-4-yl)methoxy)phenyl)propan-2-yl)benzonitrile] | 664 nM
CN(CC1CCN(c2nccc(COc3ccc(C(C)(C)c4cc(Cl)cc(C#N)c4)cc3)n2)CC1)C1CCN(c2ccc3c(c2)n(C)c(=O)n3C2CCC(=O)NC2=O)CC1 (centres unmarked) [Compound 114 trifluoroacetate, 3-chloro-5-(2-(4-((2-(4-(((1-(1-(2,6-dioxopiperidin-3-yl)-3-methyl-2-oxo-2,3-dihydro-1H-benzo[d]imidazol-5-yl)piperidin-4-yl)(methyl)amino)methyl)piperidin-1-yl)pyrimidin-4-yl)methoxy)phenyl)propan-2-yl)benzonitrile] | 665 nM

Second part, the compound after the results:

IC50 | Structure (SMILES)
303 nM | CC(C)(c1ccc(OCc2ccnc(N3CC(CN4CCC5(CC4)CCN(c4ccc6c(c4)C(=O)N(C4CCC(=O)NC4=O)C6=O)CC5)C3)n2)cc1)c1cc(Cl)cc(C#N)c1 (centres unmarked) [Compound 87 trifluoroacetate, 3-chloro-5-(2-(4-((2-(3-((9-(2-(2,6-dioxopiperidin-3-yl)-1,3-dioxoisoindolin-5-yl)-3,9-diazaspiro[5.5]undecan-3-yl)methyl)azetidin-1-yl)pyrimidin-4-yl)methoxy)phenyl)propan-2-yl)benzonitrile]
427 nM | Cn1c(=O)n(C2CCC(=O)NC2=O)c2ccc(C3CCN(CC4CCN(C5CCN(c6nccc(COc7ccc(C(C)(C)c8cc(Cl)cc(C#N)c8)cc7)n6)CC5)CC4)CC3)cc21 (centres unmarked) [Compound 91 trifluoroacetate, 3-chloro-5-(2-(4-((2-(4-((4-(1-(2,6-dioxopiperidin-3-yl)-3-methyl-2-oxo-2,3-dihydro-1H-benzo[d]imidazol-5-yl)piperidin-1-yl)methyl)-[1,4′-bipiperidin]-1′-yl)pyrimidin-4-yl)methoxy)phenyl)propan-2-yl)benzonitrile]
554 nM | COc1c(Cl)cc(C(C)(C)c2ccc(OCc3ccnc(N4CCC5(CCC(CN6CCC(c7ccc8c(c7)n(C)c(=O)n8C7CCC(=O)NC7=O)CC6)CC5)CC4)n3)cc2)cc1C#N (centres unmarked) [Compound 93 trifluoroacetate, 3-chloro-5-(2-(4-((2-(9-((4-(1-(2,6-dioxopiperidin-3-yl)-3-methyl-2-oxo-2,3-dihydro-1H-benzo[d]imidazol-5-yl)piperidin-1-yl)methyl)-3-azaspiro[5.5]undecan-3-yl)pyrimidin-4-yl)methoxy)phenyl)propan-2-yl)-2-methoxybenzonitrile]
575 nM | Cn1c(=O)n(C2CCC(=O)NC2=O)c2ccc(C3CCN(CC4CCN(c5nccc(COc6ccc(C(C)(C)c7cc(Cl)cc(C#N)c7)cc6)n5)CC4)CC3)cc21 (centres unmarked) [Compound 105 trifluoroacetate, 3-chloro-5-(2-(4-((2-(4-((4-(1-(2,6-dioxopiperidin-3-yl)-3-methyl-2-oxo-2,3-dihydro-1H-benzo[d]imidazol-5-yl)piperidin-1-yl)methyl)piperidin-1-yl)pyrimidin-4-yl)methoxy)phenyl)propan-2-yl)benzonitrile]
550 nM | Cn1c(=O)n(C2CCC(=O)NC2=O)c2ccc(C3CCN(C4CC5(CCN(c6nccc(COc7ccc(C(C)(C)c8cc(Cl)cc(C#N)c8)cc7)n6)CC5)C4)CC3)cc21 (centres unmarked) [Compound 106 trifluoroacetate, 3-chloro-5-(2-(4-((2-(2-(4-(1-(2,6-dioxopiperidin-3-yl)-3-methyl-2-oxo-2,3-dihydro-1H-benzo[d]imidazol-5-yl)piperidin-1-yl)-7-azaspiro[3.5]nonan-7-yl)pyrimidin-4-yl)methoxy)phenyl)propan-2-yl)benzonitrile]
526 nM | CCOc1c(Cl)cc(C(C)(C)c2ccc(OCc3ccnc(N4CCC5(CC4)CC(N4CCC(c6ccc7c(c6)n(C)c(=O)n7C6CCC(=O)NC6=O)CC4)C5)n3)cc2)cc1C#N (centres unmarked) [Compound 107 trifluoroacetate, 3-chloro-5-(2-(4-((2-(2-(4-(1-(2,6-dioxopiperidin-3-yl)-3-methyl-2-oxo-2,3-dihydro-1H-benzo[d]imidazol-5-yl)piperidin-1-yl)-7-azaspiro[3.5]nonan-7-yl)pyrimidin-4-yl)methoxy)phenyl)propan-2-yl)-2-ethoxybenzonitrile]
251 nM | Cn1c(=O)n(C2CCC(=O)NC2=O)c2ccc(C3CCN(CC4CCN(C5CC6(CCN(c7nccc(COc8ccc(C(C)(C)c9cc(Cl)cc(C#N)c9)cc8)n7)CC6)C5)CC4)CC3)cc21 (centres unmarked) [Compound 108 trifluoroacetate, 3-chloro-5-(2-(4-((2-(2-(4-((4-(1-(2,6-dioxopiperidin-3-yl)-3-methyl-2-oxo-2,3-dihydro-1H-benzo[d]imidazol-5-yl)piperidin-1-yl)methyl)piperidin-1-yl)-7-azaspiro[3.5]nonan-7-yl)pyrimidin-4-yl)methoxy)phenyl)propan-2-yl)benzonitrile]
330 nM | CCOc1c(Cl)cc(C(C)(C)c2ccc(OCc3ccnc(N4CCC5(CC4)CC(N4CCC(CN6CCC(c7ccc8c(c7)n(C)c(=O)n8C7CCC(=O)NC7=O)CC6)CC4)C5)n3)cc2)cc1C#N (centres unmarked) [Compound 109 trifluoroacetate, 3-chloro-5-(2-(4-((2-(2-(4-((4-(1-(2,6-dioxopiperidin-3-yl)-3-methyl-2-oxo-2,3-dihydro-1H-benzo[d]imidazol-5-yl)piperidin-1-yl)methyl)piperidin-1-yl)-7-azaspiro[3.5]nonan-7-yl)pyrimidin-4-yl)methoxy)phenyl)propan-2-yl)-2-ethoxybenzonitrile]
419 nM | COc1c(Cl)cc(C(C)(C)c2ccc(OCc3ccnc(N4CCC5(CC4)CC(CN4CCC(c6ccc7c(c6)n(C)c(=O)n7C6CCC(=O)NC6=O)CC4)C5)n3)cc2)cc1C#N (centres unmarked) [Compound 113 trifluoroacetate, 3-chloro-5-(2-(4-((2-(2-((4-(1-(2,6-dioxopiperidin-3-yl)-3-methyl-2-oxo-2,3-dihydro-1H-benzo[d]imidazol-5-yl)piperidin-1-yl)methyl)-7-azaspiro[3.5]nonan-7-yl)pyrimidin-4-yl)methoxy)phenyl)propan-2-yl)-2-methoxybenzonitrile]
